From US9346809B2 (LEO PHARMA A/S, priority 2009, dated 2016) come the findings set out here.

Holding throughout (assay type): biochemical
The target of assay [1] is T1, JAK3 (catalytic domain, His-tag) (Homo sapiens, UniProt P52333).
T1 construct: All four purified enzymes contain only the catalytic domain; His (N); purchased Carna Biosciences, Inc; host or cells: baculovirus expression system
The assay is described as follows: JAK kinase assay (HTRF, phosphorylation of TK substrate-biotin), JAK3. The following applies: ATP at Km (2 μM). An outline of the steps: (§1)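 EC50 values come from HTRF signal of phospho-peptide detected by STK Ab Cryptate and Streptavidin-XL665 after overnight incubation. Reactions ran 20-30 min at RT in Hepes pH 7.0, 0.01% BSA, 1 mM DTT, with ATP at Km: 7, 4, 2 and 13 μM for JAK1, JAK2, JAK3, TYK2.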
For orientation: Time-resolved FRET reads energy transfer from a long-lived donor to a nearby acceptor.

The target in assay [2] is T2, JAK1 (aa 850-1154, catalytic domain, GST-tag) (Homo sapiens, UniProt P23458).
T2 construct: JAK1 (aa 850-1154) and TYK2 (aa 871-1187) are expressed with an N-terminally fused GST-tag; GST (N); purchased Carna Biosciences, Inc; host or cells: baculovirus expression system
T2 sequence (P23458 850-1154): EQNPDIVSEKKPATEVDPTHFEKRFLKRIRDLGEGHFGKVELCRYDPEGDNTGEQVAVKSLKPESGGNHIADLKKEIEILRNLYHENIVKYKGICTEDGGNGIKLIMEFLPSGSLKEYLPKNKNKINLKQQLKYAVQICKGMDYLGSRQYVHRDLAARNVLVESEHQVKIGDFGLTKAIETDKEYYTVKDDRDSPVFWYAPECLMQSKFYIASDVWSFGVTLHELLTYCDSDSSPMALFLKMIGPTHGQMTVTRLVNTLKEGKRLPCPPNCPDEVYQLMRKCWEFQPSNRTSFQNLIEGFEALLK
The assay is described as follows: JAK kinase assay (HTRF, phosphorylation of TK substrate-biotin), JAK1. The following applies: ATP at Km (7 μM). An outline of the steps: as §1

Assay [3] concerns the target T3, JAK2 (catalytic domain, His-tag) (Homo sapiens, UniProt O60674).
T3 construct: All four purified enzymes contain only the catalytic domain; His (N); purchased Carna Biosciences, Inc; host or cells: baculovirus expression system
Nature of the assay: JAK kinase assay (HTRF, phosphorylation of TK substrate-biotin), JAK2. The following applies: ATP at Km (4 μM). An outline of the steps:
as §1

Assay [4] concerns the target T4, TYK2 (aa 871-1187, catalytic domain, GST-tag) (Homo sapiens, UniProt P29597).
T4 construct: JAK1 (aa 850-1154) and TYK2 (aa 871-1187) are expressed with an N-terminally fused GST-tag; GST (N); purchased Carna Biosciences, Inc; host or cells: baculovirus expression system
T4 sequence (P29597 871-1187): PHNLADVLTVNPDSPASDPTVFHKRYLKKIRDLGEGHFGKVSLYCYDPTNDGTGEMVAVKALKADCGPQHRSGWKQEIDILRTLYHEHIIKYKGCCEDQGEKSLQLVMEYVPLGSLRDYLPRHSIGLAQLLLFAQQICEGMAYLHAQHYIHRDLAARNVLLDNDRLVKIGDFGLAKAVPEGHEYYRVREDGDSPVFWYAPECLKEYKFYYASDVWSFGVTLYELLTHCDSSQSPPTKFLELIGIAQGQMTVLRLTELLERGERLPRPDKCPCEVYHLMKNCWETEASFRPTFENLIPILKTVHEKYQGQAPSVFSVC
The assay is described as follows: JAK kinase assay (HTRF, phosphorylation of TK substrate-biotin), TYK2. Particulars: ATP at Km (13 μM). In short, it runs like this: as §1

Where [5] appears, read: read-out: JAK3 kinase inhibitory activity (EC50 indicator).
[6] abbreviates: read-out: JAK1 kinase inhibitory activity (EC50 indicator).
The mark [7] stands for this setting: read-out: JAK2 kinase inhibitory activity (EC50 indicator).
[8] abbreviates: read-out: TYK2 kinase inhibitory activity (EC50 indicator).
Setting [9] is: HTRF assay, read-out: JAK3 kinase inhibitory activity (EC50 indicator).
[10] abbreviates: HTRF assay, read-out: JAK1 kinase inhibitory activity (EC50 indicator).
Where [11] appears, read: HTRF assay, read-out: JAK2 kinase inhibitory activity (EC50 indicator).
[12] abbreviates: HTRF assay, read-out: TYK2 kinase inhibitory activity (EC50 indicator).

Like-named read-outs stand apart in the source and are kept apart here.

T1 sequence (P52333 822-1111 limits assumed): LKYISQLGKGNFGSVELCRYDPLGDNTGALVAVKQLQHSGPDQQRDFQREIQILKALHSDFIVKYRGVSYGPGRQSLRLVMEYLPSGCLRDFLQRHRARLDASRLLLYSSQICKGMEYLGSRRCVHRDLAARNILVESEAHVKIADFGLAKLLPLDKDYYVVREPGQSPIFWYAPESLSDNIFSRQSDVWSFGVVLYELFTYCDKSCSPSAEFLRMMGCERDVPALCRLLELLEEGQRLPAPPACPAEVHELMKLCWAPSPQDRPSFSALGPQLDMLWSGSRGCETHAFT
T3 sequence (O60674 849-1124 limits assumed): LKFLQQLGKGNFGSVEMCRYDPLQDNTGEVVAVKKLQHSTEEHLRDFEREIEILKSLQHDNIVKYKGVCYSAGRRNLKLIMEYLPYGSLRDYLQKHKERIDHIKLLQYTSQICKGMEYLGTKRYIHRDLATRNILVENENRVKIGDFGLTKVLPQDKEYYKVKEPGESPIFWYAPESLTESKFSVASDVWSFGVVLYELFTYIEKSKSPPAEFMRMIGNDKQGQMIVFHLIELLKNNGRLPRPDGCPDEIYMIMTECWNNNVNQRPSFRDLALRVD

By EC50 is commonly meant the concentration needed to bring the measured effect to its halfway point. As to `CCOC(=O)NC(=S)N1[C@@H]2CC[C@H]1CN(c1ncnc3[nH]ccc13)C2` [Example 29, [3-(7H-Pyrrolo[2,3-d]pyrimidin-4-yl)-3,8-diazabicyclo[3.2.1]octane-8-carbothioyl]carbamic acid ethyl ester], the EC50 was above 500 nM in assay [1] (setting [5]), 100 to 500 nM in assay [2] (setting [6]), 100 to 500 nM in assay [3] (setting [7]) and above 500 nM in assay [4] (setting [8]).

In the case of `CS(=O)(=O)c1ccc(C(=O)N2CCN(c3ncnc4[nH]ccc34)CC23CC3)cc1F` [Example 370, (3-Fluoro-4-methanesulfonyl-phenyl)-[7-(7H-pyrrolo[2,3-d]pyrimidin-4-yl)-4,7-diaza-spiro[2.5]oct-4-yl]-methanone], the EC50 in assay [1] (setting [9]) was below 100 nM; in assay [2] (setting [10]) it was below 100 nM; in assay [3] (setting [11]) it was below 100 nM; in assay [4] (setting [12]) it was 100 to 500 nM.

As to `O=C(c1cc2cc(F)ccc2[nH]1)N1C2CCC1CN(c1ncnc3[nH]ccc13)C2` [Example 136, (5-Fluoro-1H-indol-2-yl)-[3-(7H-pyrrolo[2,3-d]pyrimidin-4-yl)-3,8-diaza-bicyclo[3.2.1]oct-8-yl]-methanone], the EC50 was below 100 nM in assay [1] (setting [5]), below 100 nM in assay [2] (setting [6]), below 100 nM in assay [3] (setting [7]) and 100 to 500 nM in assay [4] (setting [8]).

As for `O=C(c1cccc(OC(F)(F)F)c1)N1CCN(c2ccnc3[nH]ccc23)CC12CC2` [Example 229, [7-(1H-Pyrrolo[2,3-b]pyridin-4-yl)-4,7-diaza-spiro[2.5]oct-4-yl]-(3-trifluoromethoxy-phenyl)-methanone], the EC50 in assay [1] (setting [9]) is above 500 nM; in assay [2] (setting [10]), 100 to 500 nM; in assay [3] (setting [11]), 100 to 500 nM; in assay [4] (setting [12]) it was above 500 nM.

Consider `O=C(O)C1(C(=O)N2CCN(c3ncnc4[nH]ccc34)CC23CC3)CC1` [Example 85, 1-[7-(7H-Pyrrolo[2,3-d]pyrimidin-4-yl)-4,7-diaza-spiro[2.5]octane-4-carbonyl]-cyclopropanecarboxylic acid], for which the EC50 was above 500 nM in assay [1] (setting [5]), above 500 nM in assay [2] (setting [6]), 100 to 500 nM in assay [3] (setting [7]) and above 500 nM in assay [4] (setting [8]).

For `N#CCCCS(=O)(=O)c1ccc(C(=O)N2CCN(c3ncnc4[nH]ccc34)CC23CC3)cc1` [Example 408, 4-{4-[7-(7H-Pyrrolo[2,3-d]pyrimidin-4-yl)-4,7-diaza-spiro[2.5]octane-4-carbonyl]-benzenesulfonyl}-butyronitrile], the 50% effective concentration (EC50) in assay [1] (setting [9]) was above 500 nM; in assay [2] (setting [10]), below 100 nM; in assay [3] (setting [11]), below 100 nM; in assay [4] (setting [12]), above 500 nM.

On to `O=C(C1CCOC1)N1C2CCC1CN(c1ncnc3[nH]ccc13)C2` (stereo not shown) [Example 144, [3-(7H-Pyrrolo[2,3-d]pyrimidin-4-yl)-3,8-diaza-bicyclo[3.2.1]oct-8-yl]-(tetrahydro-furan-3-yl)-methanone], for which the EC50 in assay [1] (setting [5]) was above 500 nM; in assay [2] (setting [6]) it was 100 to 500 nM; in assay [3] (setting [7]), below 100 nM; in assay [4] (setting [8]) it was above 500 nM.

Take `O=C(c1cccc(-c2ccccc2)c1)N1[C@@H]2CC[C@@H]1CN(c1ncnc3[nH]ccc13)C2` [Example 178, Biphenyl-3-yl-[3-(7H-pyrrolo[2,3-d]pyrimidin-4-yl)-3,8-diaza-bicyclo[3.2.1]oct-8-yl]-methanone]: the EC50 in assay [1] (setting [5]) is 100 to 500 nM; in assay [2] (setting [6]), 100 to 500 nM; in assay [3] (setting [7]) it was 100 to 500 nM; in assay [4] (setting [8]), above 500 nM.

As to `COc1cnc2[nH]ccc2c1N1CCN(C(=O)c2ccc(C#N)cc2)C2(CC2)C1` [Example 286, 4-[7-(5-Methoxy-1H-pyrrolo[2,3-b]pyridin-4-yl)-4,7-diaza-spiro[2.5]octane-4-carbonyl]-benzonitrile], the concentration giving a half-maximal response (EC50) in assay [1] (setting [9]), in assay [2] (setting [10]), in assay [3] (setting [11]) and in assay [4] (setting [12]) was above 500 nM throughout.

For the compound `COCCOC(=O)N1[C@@H]2CC[C@H]1CN(c1ncnc3[nH]ccc13)C2` [Example 12, 3-(7H-Pyrrolo[2,3-d]pyrimidin-4-yl)-3,8-diazabicyclo[3.2.1]octane-8-carboxylic acid 2-methoxyethyl ester], the 50% effective concentration (EC50) in assay [1] (setting [5]) is above 500 nM; in assay [2] (setting [6]), 100 to 500 nM; in assay [3] (setting [7]), 100 to 500 nM; in assay [4] (setting [8]), above 500 nM.

Regarding `NS(=O)(=O)c1cc(OCC(=O)N2C3CCC2CN(c2ncnc4[nH]ccc24)C3)ccc1Cl` [Example 127, 2-Chloro-5-{2-oxo-2-[3-(7H-pyrrolo[2,3-d]pyrimidin-4-yl)-3,8-diaza-bicyclo[3.2.1]oct-8-yl]-ethoxy}-benzenesulfonamide], the EC50 is below 100 nM in assay [1] (setting [5]), below 100 nM in assay [2] (setting [6]), below 100 nM in assay [3] (setting [7]) and above 500 nM in assay [4] (setting [8]).

As to `O=C(c1ccc(S(=O)(=O)CCO)cc1)N1CCN(c2ncnc3[nH]ccc23)CC12CC2` [Example 406, [4-(2-Hydroxy-ethanesulfonyl)-phenyl]-[7-(7H-pyrrolo[2,3-d]pyrimidin-4-yl)-4,7-diaza-spiro[2.5]oct-4-yl]-methanone], the EC50 in assay [1] (setting [9]) was 100 to 500 nM; in assay [2] (setting [10]), below 100 nM; in assay [3] (setting [11]), below 100 nM; in assay [4] (setting [12]), 100 to 500 nM.

In the case of `O=C(OC1CCCC1)N1CCN(c2ncnc3[nH]ccc23)CC12CC2` [Example 450, 7-(7H-Pyrrolo[2,3-d]pyrimidin-4-yl)-4,7-diaza-spiro[2.5]octane-4-carboxylic acid cyclopentyl ester], the EC50 in assay [1] (HTRF assay, read-out: JAK3 kinase inhibitory activity (EC50)) is below 100 nM; in assay [2] (HTRF assay, read-out: JAK1 kinase inhibitory activity (EC50)), below 100 nM; in assay [3] (HTRF assay, read-out: JAK2 kinase inhibitory activity (EC50)), below 100 nM; in assay [4] (HTRF assay, read-out: TYK2 kinase inhibitory activity (EC50)) it was below 100 nM.

For `Cc1nc2ccccc2nc1C(=O)N1CCN(c2ncnc3[nH]ccc23)CC12CC2` [Example 419, (3-Methyl-quinoxalin-2-yl)-[7-(7H-pyrrolo[2,3-d]pyrimidin-4-yl)-4,7-diaza-spiro[2.5]oct-4-yl]-methanone], the concentration for a half-maximal effect (EC50) in assay [1] (setting [9]), in assay [2] (setting [10]), in assay [3] (setting [11]) and in assay [4] (setting [12]) was below 100 nM each time.

In the case of `CS(=O)(=O)c1ccc(C(=O)N2CCN(c3ncnc4[nH]ccc34)CC23CC3)cc1` [Example 364, (4-Methanesulfonyl-phenyl)-[7-(7H-pyrrolo[2,3-d]pyrimidin-4-yl)-4,7-diaza-spiro[2.5]oct-4-yl]-methanone], the concentration giving a half-maximal response (EC50) is 100 to 500 nM in assay [1] (setting [9]), below 100 nM in assay [2] (setting [10]), below 100 nM in assay [3] (setting [11]) and 100 to 500 nM in assay [4] (setting [12]).

For the compound `O=C(c1ccc2cc[nH]c2c1)N1CCN(c2ncnc3[nH]ccc23)CC12CC2` [Example 36, (1H-Indol-6-yl)-[7-(7H-pyrrolo[2,3-d]pyrimidin-4-yl)-4,7-diazaspiro[2.5]oct-4-yl]methanone], the concentration for a half-maximal effect (EC50) in assay [1] (setting [5]) was above 500 nM; in assay [2] (setting [6]), 100 to 500 nM; in assay [3] (setting [7]), 100 to 500 nM; in assay [4] (setting [8]), above 500 nM.

As for `N#Cc1ccc2[nH]c(C(=O)N3CCN(c4ncnc5[nH]ccc45)CC34CC4)cc2c1` [Example 217, 2-[7-(7H-Pyrrolo[2,3-d]pyrimidin-4-yl)-4,7-diaza-spiro[2.5]octane-4-carbonyl]-1H-indole-5-carbonitrile], the concentration giving a half-maximal response (EC50) in assay [1] (setting [9]) is below 100 nM; in assay [2] (setting [10]) it was below 100 nM; in assay [3] (setting [11]), below 100 nM; in assay [4] (setting [12]), 100 to 500 nM.

For the compound `N#Cc1ccc(C(=O)C(=O)N2CCN(c3ncnc4[nH]ccc34)CC23CC3)cc1` [Example 381, 4-{2-Oxo-2-[7-(7H-pyrrolo[2,3-d]pyrimidin-4-yl)-4,7-diaza-spiro[2.5]oct-4-yl]-acetyl}-benzonitrile], the 50% effective concentration (EC50) in assay [1] (setting [9]) is 100 to 500 nM; in assay [2] (setting [10]), below 100 nM; in assay [3] (setting [11]) it was below 100 nM; in assay [4] (setting [12]), 100 to 500 nM.

`Nc1nc(N2CCN(C(=O)c3cnccn3)C3(CC3)C2)c2cc[nH]c2n1` [Example 302, [7-(2-Amino-7H-pyrrolo[2,3-d]pyrimidin-4-yl)-4,7-diaza-spiro[2.5]oct-4-yl]-pyrazin-2-yl-methanone]: the concentration giving a half-maximal response (EC50) in assay [1] (setting [9]) is 100 to 500 nM; in assay [2] (setting [10]) it was 100 to 500 nM; in assay [3] (setting [11]), below 100 nM; in assay [4] (setting [12]), above 500 nM.
